A value given as a limit tells only on which side of the number the result lay.

Usually Kd stands for the free concentration of one partner at which half of the binding sites on the other are occupied at equilibrium, for simple one-to-one binding.

For one experiment, the target named is MIC2. In words: SPR binding of PROTACs to immobilized antibody MIC2. Conditions: MIC2, 1:1 kinetic binding model. The procedure: The binding affinities of hit antibodies MIC1 and MIC2 to a diverse set of VH032-based PROTACs (FIGS. 8A-8B) was determined by surface plasmon resonance (SPR) in a Biacore T200 instrument. The running buffer consist of PBS, 0.05% Tween-20, 2% DMSO and temperature and flow rate were set to 30° C. and 30 μL/min, respectively. The assay setup is depicted exemplarily in FIG. 7A. CM5 sensor chips were coated with antibody (=ligand; 2500 RU) using standard EDC/NHS chemistry. PROTACs (=analytes) were serially diluted (1 μM-1.9 nM) in running buffer, injected to the instrument in consecutive runs and were captured by the antibody resulting in an increase of the corresponding SPR response. After the association step (300 s), running buffer was injected for 600 s and the PROTAC dissociated from the antibody leading to signal decrease. After each run, residual bound PROTAC was removed from the immobilized antibody by injection of 10 mM glycine/HCl, pH 1.5 for 2×30 s regenerating the antibody for the next association and dissociation cycle. To compensate for matrix effects, the measured SPR response signal was subtracted by the analyte response to an inactivated (EDC/NHS, ethanol amine) reference surface omitting the ligand. Furthermore, a DMSO solvent correction was performed and analyte response was subtracted by the running buffer signal. The corrected response was fitted by a 1:1 kinetic binding model yielding the on- (kon) and off-rate (koff) of the PROTAC, as well as its dissociation constant (KD).
For orientation: In SPR one partner is held on a chip, and binding of the other changes the refractive index at the surface.

Another experiment has as its target CD33xMIC10. Put plainly: SPR affinity of VHH clone (antibody fusion) to PROTACs. Conditions: CD33xMIC10 immobilized, 25° C., read-out: KD [M] for antibody binding to PROTAC. The procedure: (§1) The kinetic and affinity parameters of protein-PROTAC interactions were evaluated by SPR. The anti-PROTAC VHH clones MIC5-MIC14 were immobilized as CD33 or CLL1 antibody fusion (the manufacturing of fusion proteins and the used linker is described in chapter 7.9) onto a CM5 (Series S) sensor chip via the standard amine coupling procedure, at 25° C. Prior to immobilization, the carboxymethylated surface of the chip was activated with 400 mM 1-ethyl-3-(3-dimethylaminopropyl)-carbodiimide and 100 mM N-hydroxysuccinimide for 7 min. Hit anti-PROTAC VHH as CD33 and CLL1 antibody fusions were diluted to 10 μg/ml in 10 mM Acetate at pH 4.5 and immobilized on the activated surface chip for 7 min, in order to reach 3,000 to 6,000 response units (RU). The remaining activated carboxymethylated groups were blocked with a 10 min injection of 1 M ethanolamine pH 8. HBS-N, which consists of 10 mM HEPES pH 7.4 and 150 mM NaCl, was used as the background buffer during immobilization. PROTACs were prediluted in DMSO, diluted 1:50 in running buffer (12 mM phosphate pH 7.4, 137 mM NaCl, 2.7 mM KCl, 0.05% Tween20, 2% DMSO) and injected at ten different concentrations using two-fold dilution series, from 1 μM to 0.002 μM. A DMSO solvent correction (1%-3%) was performed to account for variations in bulk signal and to achieve high-quality data. Interaction analysis cycles consisted of a 300 sec sample injection (30 μL/min; association phase) followed by 900 sec of buffer flow (dissociation phase).
(§2) All sensorgrams were processed by first subtracting the binding response recorded from the control surface (reference flow-channel), followed by subtracting of the buffer blank injection from the active flow-channel (target protein immobilized). All datasets were fit to a simple 1:1 Langmuir interaction model to determine the kinetic rate constants. Experiments were performed on a Biacore 8k+ (Cytiva, Uppsala, Sweden) at 25° C. and the interactions were evaluated using the provided Biacore Insight Evaluation software.

The target of another experiment is CD33xMIC11. The experiment is described as above. Conditions: CD33xMIC11 immobilized, 25° C., read-out: KD [M] for antibody binding to PROTAC. The procedure:
as §1, §2

A further experiment concerns the target CD33xMIC12. Described as above. The following applies: CD33xMIC12 immobilized, 25° C., read-out: KD [M] for antibody binding to PROTAC. The procedure: as §1, §2
For a further experiment, the target named is CD33xMIC13. The experiment is described as above. Conditions: CD33xMIC13 immobilized, 25° C., read-out: KD [M] for antibody binding to PROTAC. The procedure:
as §1, §2

The target of a further experiment is CD33xMIC14. Described as above. The following applies: CD33xMIC14 immobilized, 25° C., read-out: KD [M] for antibody binding to PROTAC. The procedure:
as §1, §2

The target of another experiment is CD33xMIC5. The description is as above. The following applies: CD33xMIC5 immobilized, 25° C., read-out: KD [M] for antibody binding to PROTAC. The procedure:
as §1, §2

Another experiment has as its target CD33xMIC6. The experiment is described as above. Conditions: CD33xMIC6 immobilized, 25° C., read-out: KD [M] for antibody binding to PROTAC. The procedure: as §1, §2
Another experiment addresses CD33xMIC7. The description is as above. Conditions: CD33xMIC7 immobilized, 25° C., read-out: KD [M] for antibody binding to PROTAC. The procedure: as §1, §2
Another experiment addresses CD33xMIC8. Described as above. The following applies: CD33xMIC8 immobilized, 25° C., read-out: KD [M] for antibody binding to PROTAC. The procedure:
as §1, §2

In a further experiment the target is CD33xMIC9. The experiment is described as above. Conditions: CD33xMIC9 immobilized, 25° C., read-out: KD [M] for antibody binding to PROTAC. The procedure:
as §1, §2

Another experiment addresses CLL1xMIC7. The description is as above. Conditions: CLL1xMIC7 immobilized, 25° C., read-out: KD [M] for antibody binding to PROTAC. The procedure: as §1, §2

Regarding `Cc1ncsc1-c1ccc([C@H](C)NC(=O)[C@@H]2C[C@@H](O)CN2C(=O)[C@@H](NC(=O)COCCCOCCNC(=O)C[C@@H]2N=C(c3ccc(Cl)cc3)c3c(sc(C)c3C)-n3c(C)nnc32)C(C)(C)C)cc1` [ARV771], the Kd on MIC2 was more than 1000 nM; on CD33xMIC10, 1.4e-07 M; on CD33xMIC11, 3.7e-09 M; at CD33xMIC12 it was 5.6e-09 M; on CD33xMIC13, 1.3e-08 M; at CD33xMIC14, 1.4e-07 M. Also, the Kd at CD33xMIC5 stood at 2.7e-07 M; at CD33xMIC6, 5.3e-08 M; at CD33xMIC7, 4.2e-09 M; at CD33xMIC8 it was 3.1e-08 M; on CD33xMIC9, 4e-09 M; on CLL1xMIC7, 8.8e-09 M.

For the molecule `Cc1ncsc1-c1ccc(CNC(=O)[C@@H]2C[C@@H](O)CN2C(=O)[C@@H](NC(=O)CCCCCCCCCCNC(=O)c2cc3c(cc2CS(C)(=O)=O)-c2cn(C)c(=O)c4[nH]cc(c24)CN3c2ncc(F)cc2F)C(C)(C)C)cc1` [GNE987], the Kd at MIC2 was determined as 1.9 nM; at CD33xMIC10, 1.3e-08 M; at CD33xMIC11, 2e-08 M; at CD33xMIC12 it was 4.2e-08 M; on CD33xMIC13, 2.3e-08 M; at CD33xMIC14, 1e-08 M. Moreover, the dissociation constant (Kd) at CD33xMIC5 was 9.6e-10 M; on CD33xMIC6 it was 4.1e-08 M; at CD33xMIC7 it was less than 1e-10 M; on CD33xMIC8, 6.5e-09 M; at CD33xMIC9, 4.3e-08 M; on CLL1xMIC7 it was less than 1e-10 M. Moreover, in the experiment on MIC2, the koff result was “NM/4.10E−05 1/s”. For the same molecule, in the experiment on MIC2, the kon result is reported as “NM/2.20E+04 1/Ms”.

The values above are taken from patent US20250312468A1, “ANTI-PROTAC ANTIBODIES AND COMPLEXES” (Merck Patent GmbH, priority 2021, published 2025).
